# PubChem BioAssay (NCI)
#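 Five compound concentrations were applied to cells in 96-well plates for 48 hours; endpoints were derived by simple linear interpolation of the resulting dose-response curve. TGI: concentration producing complete growth inhibition.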 *1 amine or outer side, *2 acyl side, *3 side chain or, on linkers, in order; H or OH if unused. Where a SMILES comes first, the peptide text is derived from it. Bridges are numbered along the chain shown (N, C = ends). Roman numbers before positions name the chains, in order. [ ]: non-standard residue; d: D form. Actinocin(9to1) = Cc1c2oc3c(C)ccc(C(=O)[*:1])c3nc-2c(C(=O)[*:2])c(N)c1=O; NMeH = CN[CH](Cc1c[nH]cn1)C(=O)O; Sar = CNCC(=O)O
# What was measured:
# Test in all cases: growth of human tumour cells (NCI), 48 h
# [1] = tested on: 786-0 renal
# [2] = tested on: A549 NSCLC
# [3] = tested on: ACHN renal
# [4] = tested on: BT-549 breast
# [5] = tested on: CAKI-1 renal
# [6] = tested on: CCRF-CEM leukemia
# [7] = tested on: COLO 205 colon
# [8] = tested on: EKVX NSCLC
# [9] = tested on: HCC-2998 colon
# [10] = tested on: HCT-15 colon
# [11] = tested on: HL-60(TB) leukemia
# [12] = tested on: HOP-62 NSCLC
# [13] = tested on: HOP-92 NSCLC
# [14] = tested on: HS 578T breast
# [15] = tested on: HT29 colon
# [16] = tested on: IGROV1 ovarian
# [17] = tested on: K-562 leukemia
# [18] = tested on: KM12 colon
# [19] = tested on: LOX IMVI melanoma
# [20] = tested on: M14 melanoma
# [21] = tested on: MALME-3M melanoma
# [22] = tested on: MCF7 breast
# [23] = tested on: MDA-MB-231 breast
# [24] = tested on: MDA-MB-435
# [25] = tested on: MDA-N
# [26] = tested on: MOLT-4 leukemia
# [27] = tested on: NCI-H226 lung
# [28] = tested on: NCI-H23 lung
# [29] = tested on: NCI-H460 lung
# [30] = tested on: NCI-H522 lung
# [31] = tested on: NCI/ADR-RES ovarian
# [32] = tested on: OVCAR-3 ovarian
# [33] = tested on: OVCAR-4 ovarian
# [34] = tested on: OVCAR-5 ovarian
# [35] = tested on: OVCAR-8 ovarian
# [36] = tested on: PC-3 prostate
# [37] = tested on: RPMI-8226 leukemia
# [38] = tested on: RXF 393 renal
# [39] = tested on: SF-268 CNS
# [40] = tested on: SF-295 CNS
# [41] = tested on: SF-539 CNS
# [42] = tested on: SK-MEL-2 melanoma
# [43] = tested on: SK-MEL-28 melanoma
# [44] = tested on: SK-MEL-5 melanoma
# [45] = tested on: SK-OV-3 ovarian
# [46] = tested on: SN12C renal
# [47] = tested on: SNB-19 CNS
# [48] = tested on: SNB-75 CNS
# [49] = tested on: SR leukemia
# [50] = tested on: SW-620 colon
# [51] = tested on: T-47D breast
# [52] = tested on: TK-10 renal
# [53] = tested on: U251 CNS
# [54] = tested on: UACC-257 melanoma
# [55] = tested on: UACC-62 melanoma
# [56] = tested on: UO-31 renal
# [57] = tested on: A498 renal
# [58] = tested on: DU-145 prostate
# [59] = tested on: HCT-116 colon
compound,measurement,setting,value
"Cc1c2oc3c(C)ccc(C(=O)NC4C(=O)NC(C(C)C)C(=O)N5CCCC5C(=O)N(C)CC(=O)N(C)C(Cc5cnc[nH]5)C(=O)OC4C)c3nc-2c(C(=O)NC2C(=O)NC(C(C)C)C(=O)N3CCCC3C(=O)N(C)CC(=O)N(C)C(Cc3cnc[nH]3)C(=O)OC2C)c(N)c1=O (stereo not drawn) (I: TVP[Sar][NMeH] / II: TVP[Sar][NMeH]; ester I:1-I:C, II:1-II:C; linker I:N-II:N via Actinocin(9to1); configuration not given here)",TGI,[1],> 100 µM
same,TGI,[2],> 100 µM
same,TGI,[3],> 100 µM
same,TGI,[4],> 100 µM
same,TGI,[5],> 100 µM
same,TGI,[6],> 100 µM
same,TGI,[7],> 100 µM
same,TGI,[8],> 100 µM
same,TGI,[9],> 100 µM
same,TGI,[10],> 100 µM
same,TGI,[11],> 100 µM
same,TGI,[12],> 100 µM
same,TGI,[13],> 100 µM
same,TGI,[14],> 100 µM
same,TGI,[15],> 100 µM
same,TGI,[16],> 100 µM
same,TGI,[17],> 100 µM
same,TGI,[18],> 100 µM
same,TGI,[19],> 100 µM
same,TGI,[20],> 100 µM
same,TGI,[21],> 100 µM
same,TGI,[22],> 100 µM
same,TGI,[23],> 100 µM
same,TGI,[24],> 100 µM
same,TGI,[25],81.4 µM
same,TGI,[26],> 100 µM
same,TGI,[27],> 100 µM
same,TGI,[28],> 100 µM
same,TGI,[29],> 100 µM
same,TGI,[30],> 100 µM
same,TGI,[31],> 100 µM
same,TGI,[32],> 100 µM
same,TGI,[33],> 100 µM
same,TGI,[34],> 100 µM
same,TGI,[35],> 100 µM
same,TGI,[36],> 100 µM
same,TGI,[37],> 100 µM
same,TGI,[38],51.9 µM
same,TGI,[39],> 100 µM
same,TGI,[40],> 100 µM
same,TGI,[41],> 100 µM
same,TGI,[42],> 100 µM
same,TGI,[43],> 100 µM
same,TGI,[44],55.9 µM
same,TGI,[45],> 100 µM
same,TGI,[46],> 100 µM
same,TGI,[47],> 100 µM
same,TGI,[48],> 100 µM
same,TGI,[49],> 100 µM
same,TGI,[50],> 100 µM
same,TGI,[51],> 100 µM
same,TGI,[52],> 100 µM
same,TGI,[53],> 100 µM
same,TGI,[54],> 100 µM
same,TGI,[55],> 100 µM
same,TGI,[56],> 100 µM
OC1(c2ccccc2)C2CC=CC2C1(c1ccccc1)c1ccccc1 (stereo not drawn),TGI,[1],> 100 µM
same,TGI,[57],57 µM
same,TGI,[2],> 100 µM
same,TGI,[3],> 100 µM
same,TGI,[4],> 100 µM
same,TGI,[5],60.1 µM
same,TGI,[6],> 100 µM
same,TGI,[7],44.6 µM
same,TGI,[58],> 100 µM
same,TGI,[8],76.4 µM
same,TGI,[9],48.3 µM
same,TGI,[59],> 100 µM
same,TGI,[10],> 100 µM
same,TGI,[11],95.7 µM
same,TGI,[12],> 100 µM
same,TGI,[13],> 100 µM
same,TGI,[14],> 100 µM
same,TGI,[15],69.8 µM
same,TGI,[16],48.9 µM
same,TGI,[17],> 100 µM
same,TGI,[18],> 100 µM
same,TGI,[19],37.9 µM
same,TGI,[20],> 100 µM
same,TGI,[21],53 µM
same,TGI,[22],79.4 µM
same,TGI,[23],> 100 µM
same,TGI,[24],62.1 µM
same,TGI,[25],> 100 µM
same,TGI,[26],> 100 µM
same,TGI,[28],> 100 µM
same,TGI,[29],> 100 µM
same,TGI,[30],32.7 µM
same,TGI,[31],> 100 µM
same,TGI,[32],> 100 µM
same,TGI,[34],> 100 µM
same,TGI,[35],> 100 µM
same,TGI,[36],> 100 µM
same,TGI,[37],86.5 µM
same,TGI,[38],46.3 µM
same,TGI,[39],> 100 µM
same,TGI,[40],> 100 µM
same,TGI,[41],> 100 µM
same,TGI,[42],27.5 µM
same,TGI,[43],> 100 µM
same,TGI,[44],36.2 µM
same,TGI,[45],> 100 µM
same,TGI,[46],> 100 µM
same,TGI,[47],> 100 µM
same,TGI,[48],> 100 µM
same,TGI,[49],> 100 µM
same,TGI,[50],> 100 µM
same,TGI,[51],> 100 µM
same,TGI,[52],> 100 µM
same,TGI,[53],> 100 µM
same,TGI,[54],81.4 µM
same,TGI,[55],> 100 µM
same,TGI,[56],> 100 µM
